Data reported in paper PMC6550523, “De Novo Emergence of Peptides That Confer Antibiotic Resistance” (mBio, 2019).
Where two headings read alike, the source gives them in different places.

Legend:
[1] = system: bovine cytochrome c oxidase (CytcO) reconstituted into proteoliposomes; assay type: biochemical
Description: When ionophores (valinomycin, a K^+ ionophore, and/or FCCP, a protonophore similar to CCCP) are added, this gradient is partly or fully dissipated, and the so-called uncoupled rate is reached. […] Thus, we determined the RCRs after adding the Arp-1 and Arp1-L11K peptides, and as positive controls we added valinomycin and FCCP in addition to the peptides (Fig. 4B and Fig. S4C).
(A) CytcO reduces O2 to H2O, using electrons from reduced cytochrome (cyt.) c and protons from inside the liposomes. In addition, protons are pumped and a proton electrochemical gradient (positive outside) across the membrane is established. Valinomycin, a K^+ ionophore, can dissipate the charge component and FCCP, a protonophore, both components of this gradient. (B) A typical oxygen consumption experiment; the baseline with only ascorbate, TMPD, and cyt. c was first measured. Proteoliposomes then were added, initiating oxygen consumption by CytcO and build-up of a membrane potential. The coupled rate is the slope after liposome addition subtracting the baseline. Peptides (Arp1 or L11K), valinomycin, and FCCP were added, in this order, and the rates measured. RCRs were determined by dividing the different rates by the initial coupled rate. […]
CytcO activity was measured using a Clark-type oxygen electrode (Hansatech) at 25°C. […] Oxygen consumption rates and RCRs were measured essentially as described in reference [43].

[2] = system: Escherichia coli K-12 strain BW25113; test: MIC determination (Etest) in strains expressing the peptides; assay type: cell-based; settings: for Increased aminoglycoside resistance on overexpression of endogenous E. coli peptides: TisB from a pBAD promoter, arabinose 0.0125 to 0.2%, at viable expression levels
Description: Most strains used in this study were derived from Escherichia coli K-12 BW25113 (designated E. coli throughout the text) and are listed in Table S1 in the supplemental material. If not indicated otherwise, Muller Hinton broth (MHB) (Becton, Dickinson) was used for growth in liquid cultures and Muller Hinton agar (MHA; MHB supplemented with 15 g/liter agar) for growth on plates. To maintain the plasmid pRD2 or pBAD18, the growth media were supplemented with 100 mg/liter ampicillin or 15 mg/liter chloramphenicol, respectively. Induction of expression was performed in the presence of 1 mM IPTG (pRD2) or 0.2% arabinose (pBAD18). For counterselection of sacB, no-salt lysogeny agar plates (10 g/liter tryptone, 5 g/liter yeast extract, 15 g/liter agar, and 50 g/liter sucrose) were used. Recovery after transformation was done in SOC medium (20 g/liter tryptone, 5 g/liter yeast extract, 0.5 g/liter NaCl, 10 mM MgCl2, […], and 4 g/liter glucose). For washing and dilution of cells, phosphate-buffered saline (PBS; 8 g/liter NaCl, 0.2 g/liter KCl, 1.44 g/liter Na2HPO4, and 0.24 g/liter KH2PO4) was used.
MICs were determined using Etest strips (bioMérieux). Overnight cultures of the strains of interest were diluted 1:20 in PBS and spread on an MHA plate containing 100 mg/liter ampicillin and 1 mM IPTG where necessary with a cotton swab. Etest strips were applied in the middle of the plates and incubated at 37°C overnight. MIC values were scored after 20 h of incubation. Colistin MICs were determined using microdilution. For this, bacteria were grown on MHA with 100 mg/liter ampicillin, and 1 to 2 colonies were dissolved in 1 ml PBS to approximately 0.5 McFarland. The cell suspension was diluted 1:100 in Muller Hinton 2 broth (cation adjusted), and 50 μl was mixed with 50 μl Muller Hinton 2 broth containing 0.4% arabinose, 30 mg/liter chloramphenicol, and a 2-fold dilution series of colistin. The assay was performed in round-bottomed 96-well plates at 37°C overnight in a stationary position. The MIC was determined as the concentration where no growth could be observed and is based on a minimum of two biological replicates. If the determined values of the replicates were not identical, a third replicate was performed.
The site saturation mutagenesis was performed with GeneArt (ThermoFisher) based on the sequence of Arp1, where each position in the wild-type sequence was replaced by the amino acids lysine (K), glutamic acid (E), proline (P), tryptophan (W), and serine (S). All variants were subcloned into our modified expression vector, pBAD18-RND, using the AgeI/HindIII cloning sites, transformed into E. coli, and delivered as a total pool glycerol stock. […] The plasmid variants were determined by Sanger sequencing (Eurofins, Germany). […]

E. coli = test: Toxicity of peptides when expressed; assay type: cell-based, Escherichia coli; settings: expressed in E. coli from pBAD vector
[3] = system: E. coli membrane potential; test: Membrane potential assay with DiBAC4(3); assay type: cell-based, Escherichia coli; settings: 100 μM CCCP, 30 min, room temperature; positive control
Description: Bacteria were grown overnight in MHB supplemented with 15 mg/liter chloramphenicol at 37°C. The following day all cultures were diluted 1:100 in MHB supplemented with 15 mg/liter chloramphenicol and grown to an OD600 of approximately 0.3 (time point 0). At the target OD600, IPTG was added to each culture to a final concentration of 1 mM, and cells were incubated for another 60 min to allow expression of proteins (time point 1). At both time points, approximately 10^6 cells were transferred to 1 ml PBS with 10 mg/liter DiBAC4(3) (D8189; Sigma-Aldrich) with or without 100 μM carbonyl cyanide 3-chlorophenylhydrazone (CCCP; Sigma-Aldrich) and incubated for 30 min at room temperature in the dark. Fluorescence was measured with a MACSQuant VYB (Miltenyi Biotec) using the GFP/FITC (green fluorescent protein/fluorescein isothiocyanate) channel and a threshold of 15,000 gated cells. The raw data were analyzed and visualized with FlowJo (BD Bioscience).

N#CC(C#N)=NNc1ccc(OC(F)(F)F)cc1 [FCCP]
Effect of ionophore added in addition to Arp1 peptide [1]: fully collapsed the gradient

CC(C)[C@@H]1NC(=O)[C@H](C)OC(=O)[C@@H](C(C)C)NC(=O)[C@@H](C(C)C)OC(=O)[C@H](C(C)C)NC(=O)[C@H](C)OC(=O)[C@@H](C(C)C)NC(=O)[C@@H](C(C)C)OC(=O)[C@H](C(C)C)NC(=O)[C@H](C)OC(=O)[C@@H](C(C)C)NC(=O)[C@@H](C(C)C)OC1=O [Valinomycin, valinomycin]
Effect of ionophore added in addition to Arp1 peptide ([1]; valinomycin 6 μM, then FCCP 21 μM, positive controls): further rate increase

NC[C@H]1O[C@H](O[C@H]2[C@H](O)[C@@H](O[C@H]3O[C@H](CO)[C@@H](O)[C@H](N)[C@H]3O)[C@H](N)C[C@@H]2N)[C@H](O)[C@@H](O)[C@@H]1O [kanamycin]
Kanamycin MIC of the empty vector control strain ([2]; E. coli BW25113 with empty vector, Etest, 37°C, 20 h): 0.75 µg/mL

IbsC: endogenous E. coli toxin peptide similar to Arp1-3 in size and hydrophobicity (MMRLVIILIVLLLISFSAY; UniProt C1P615 1-19, looked up)
Increased aminoglycoside resistance on overexpression of endogenous E. coli peptides [2]: no increased resistance

LdrD: endogenous E. coli toxin peptide similar to Arp1-3 in size and hydrophobicity (MTFAELGMAFWHDLAAPVIAGILASMIVNWLNKRK; UniProt Q6BF25 1-35, looked up)
Increased aminoglycoside resistance on overexpression of endogenous E. coli peptides [2]: no increased resistance

TisB: endogenous E. coli K-12 29-mer toxin of a toxin-antitoxin system (MNLVDIAILILKLIVAALQLLDAVLKYLK; UniProt A5A627 1-29, looked up)
Toxicity when expressed (E. coli): lethal
Increased aminoglycoside resistance on overexpression of endogenous E. coli peptides [2]: no increased resistance

carbonyl cyanide m-chlorophenyl hydrazine [CCCP]
Membrane potential, DiBAC4(3) fluorescence [3]: clear shift to higher fluorescence
